Source: patent US10441562B2, “Aromatic farnesyl compound and application thereof” (INSTITUTE OF MICROBIOLOGY, CHINESE ACADEMY OF SCIENCES, priority 2015, dated 2019)
Marks after values point to notes of the source that are not given here.

How the values were obtained:
[1] = system: hyperglycemia KK-A^y mice; assay: blood lipid and liver function of hyperglycemia KK-A^y mice; assay type: in vivo; details: 3 weeks
Protocol: (§1) Materials: accurately weigh the 2 compounds S13 and S28 discussed in example 2, and then add 0.5% CMC-Na to make the solution of 5 mg/ml used for activity test. KK-A^y mice are purchased from Chinese Academy of Medical Sciences & Peking Union Medical College Institute of Animal Studies. Experiments are carried out after adapting to the environment (T=20-24° C., constant humidity: 50-60%, 12 hours light exposure (8:00-20:00), soundproof, free feeding and drinking) for 1 week. Glucometer is purchased from Roche.
(§2) Methods: 10 male C57 mice of 6-8 weeks of 20-22 g are used as normal control group (1). Detect the fasting glucose of male KK-A^y mice, which are 6-8 weeks with the weight of 28-32 g, and divide them into different groups according to the blood sugar level and body weight: (2) model control group, (3) which is administered by compound S13 with the dose of 1 mg/kg, (4) which is administered by compound S13 with the dose of 5 mg/kg, (5) which is administered by compound S13 with the dose of 10 mg/kg, (6) which is administered by compound S13 with the dose of 20 mg/kg, (7) which is administered by compound S28 with the dose of 1 mg/kg, (8) which is administered by compound S28 with the dose of 5 mg/kg, (9) which is administered by compound S28 with the dose of 10 mg/kg, (10) which is administered by compound S28 with the dose of 20 mg/kg, (11) which is administered by metformin with the dose of 8 g/kg, (12) which is administered by compound S13 with the dose of 2.5 mg/kg and metformin with the dose of 4 g/kg, (13) which is administered by compound S13 with the dose of 5 mg/kg and metformin with the dose of 4 g/kg, (14) which is administered by compound S28 with the dose of 2.5 mg/kg and metformin with the dose of […], (15) which is administered by compound S28 with the dose of 5 mg/kg and metformin with the dose of […]. Each group has 8 mice, and is administrated successively for 3 weeks. Model control group is given with equal amounts of 0.5% CMC-Na.
4) After the last administration, the mice are executed under anesthesia, and blood is taken to be centrifuged at 3000 rpm in 4[…]. Serum total cholesterol, low density lipoprotein and triglyceride TG are detected.

aldose reductase = aldose reductase (Homo sapiens, UniProt P15121); assay: aldose reductase inhibitory activity test in vitro; assay type: biochemical
In short: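 Absorbance assay with 0.1 mM NADPH solution and enzyme preincubated with compound 10 min at room temperature, then 10 mM D,L-glyceraldehyde solution added as substrate. Incubation 30 min at 37 °C in PBS. Read-out is optical density at 340 nm, corrected with blank (no compound) and background (no substrate) wells.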

[2] = system: hyperglycemia KK-A^y mice; assay: blood sugar of hyperglycemia KK-A^y mice; assay type: in vivo; parameters: blood sugar: unit not given here; details: for blood sugar at the 1st day, 0: 1st day 0 h; for blood sugar at the 1st day, 30 min: 1st day 30 min after intragastric administration
Protocol: as §1, §2
1) Effects of drugs on blood sugar: at the first day after administration, the mice are fasted for 2 hours and blood is collected (0 h) to detect the fasting blood sugar. After the compound is given to the mice by intragastric administration for 30 min, blood is collected from tip of tail to detect the blood sugar level.
2) Effects on body weight and blood sugar: the body weight of mice are recorded at the 2th, 5th, 8th, 11th, 14th, 17th, 20th day after administration, and blood is collected from tip of tail to detect the blood sugar level (see table 10).

How did the ALT ([1]; 1 mg/kg, groups 3, 7) turn out when CC(C)=CCC/C(C)=C/CCC1=C[C@@H](c2cc(O)ccc2O)OC1=O [S28, (S,E)-5-(2,5-dihydroxyphenyl)-3-(4,8-dimethylnona-3,7-dien-1-yl)furan-2(5H)-one] was run?
Its ALT is 72.5** U/L.

What about the AST ([1]; 1 mg/kg, groups 3, 7) of the same molecule?
Its AST is 56.5** U/L.

And the HDL-C ([1]; 1 mg/kg, groups 3, 7)?
The HDL-C was 22.1 mg/dL.

And the LDL-C ([1]; 1 mg/kg, groups 3, 7)?
The LDL-C was 64** mg/dL.

And the SOD ([1]; 1 mg/kg, groups 3, 7)?
Its SOD is 5.12** U/L.

And the TC ([1]; 1 mg/kg, groups 3, 7)?
Its TC is 134** mg/dL.

And the TG ([1]; 1 mg/kg, groups 3, 7)?
The TG was 325** mg/dL.

What about the ALT ([1]; 5 mg/kg, groups 4, 8) of the same molecule?
Its ALT is 71.2** U/L.

And the AST ([1]; 5 mg/kg, groups 4, 8)?
Its AST is 63.6** U/L.

And the HDL-C ([1]; 5 mg/kg, groups 4, 8)?
Its HDL-C is 22.3 mg/dL.

And the LDL-C ([1]; 5 mg/kg, groups 4, 8)?
Its LDL-C is 69* mg/dL.

What about the SOD ([1]; 5 mg/kg, groups 4, 8) of the same molecule?
The SOD was 4.25* U/L.

What about the TC ([1]; 5 mg/kg, groups 4, 8) of the same molecule?
The TC was 134** mg/dL.

And the TG ([1]; 5 mg/kg, groups 4, 8)?
The TG was 312** mg/dL.

What about the ALT ([1]; 10 mg/kg, groups 5, 9) of the same molecule?
Its ALT is 62.5** U/L.

And the AST ([1]; 10 mg/kg, groups 5, 9)?
Its AST is 60.6** U/L.

And the HDL-C ([1]; 10 mg/kg, groups 5, 9)?
Its HDL-C is 22.5 mg/dL.

What about the LDL-C ([1]; 10 mg/kg, groups 5, 9) of the same molecule?
The LDL-C was 69* mg/dL.

And the SOD ([1]; 10 mg/kg, groups 5, 9)?
Its SOD is 4.12* U/L.

What about the TC ([1]; 10 mg/kg, groups 5, 9) of the same molecule?
Its TC is 135** mg/dL.

And the TG ([1]; 10 mg/kg, groups 5, 9)?
Its TG is 331** mg/dL.

And the ALT ([1]; 20 mg/kg, groups 6, 10)?
The ALT was 61.5** U/L.

What about the AST ([1]; 20 mg/kg, groups 6, 10) of the same molecule?
Its AST is 60.6** U/L.

What about the HDL-C ([1]; 20 mg/kg, groups 6, 10) of the same molecule?
The HDL-C was 22.4 mg/dL.

What about the LDL-C ([1]; 20 mg/kg, groups 6, 10) of the same molecule?
Its LDL-C is 54** mg/dL.

What about the SOD ([1]; 20 mg/kg, groups 6, 10) of the same molecule?
Its SOD is 4.34* U/L.

What about the TC ([1]; 20 mg/kg, groups 6, 10) of the same molecule?
The TC was 123** mg/dL.

And the TG ([1]; 20 mg/kg, groups 6, 10)?
Its TG is 312** mg/dL.

And the IC50 (aldose reductase)?
The IC50 was 1600 nM.

And the “effect on blood sugar of hyperglycemia mice (in words)” value [2]?
The value was “significant effects on blood sugar of hyperglycemia mice”.

And the “blood sugar at the 1st day, 0” value ([2]; 1 mg/kg, groups 3, 7)?
The value was 14.5.

What about the “blood sugar at the 1st day, 0” value ([2]; 5 mg/kg, groups 4, 8) of the same molecule?
The value was 14.5.

What about the “blood sugar at the 1st day, 0” value ([2]; 10 mg/kg, groups 5, 9) of the same molecule?
The value was 14.2.

And the “blood sugar at the 1st day, 0” value ([2]; 20 mg/kg, groups 6, 10)?
The value was 14.1.

And the “blood sugar at the 1st day, 30 min” value ([2]; 1 mg/kg, groups 3, 7)?
Its value is 11.3.

What about the “blood sugar at the 1st day, 30 min” value ([2]; 5 mg/kg, groups 4, 8) of the same molecule?
The value was 9.42.

What about the “blood sugar at the 1st day, 30 min” value ([2]; 10 mg/kg, groups 5, 9) of the same molecule?
Its value is 9.32.

What about the “blood sugar at the 1st day, 30 min” value ([2]; 20 mg/kg, groups 6, 10) of the same molecule?
Its value is 6.24.

And the blood sugar ([2]; 2st day, 1 mg/kg, groups 3, 7)?
The blood sugar was 17.23.

What about the blood sugar ([2]; 2st day, 5 mg/kg, groups 4, 8) of the same molecule?
Its blood sugar is 10.2.

And the blood sugar ([2]; 2st day, 10 mg/kg, groups 5, 9)?
Its blood sugar is 13.12.

And the blood sugar ([2]; 2st day, 20 mg/kg, groups 6, 10)?
The blood sugar was 13.25.

What about the blood sugar ([2]; 5st day, 1 mg/kg, groups 3, 7) of the same molecule?
Its blood sugar is 14.1.

What about the blood sugar ([2]; 5st day, 5 mg/kg, groups 4, 8) of the same molecule?
Its blood sugar is 10.8.

And the blood sugar ([2]; 5st day, 10 mg/kg, groups 5, 9)?
Its blood sugar is 13.5.

And the blood sugar ([2]; 5st day, 20 mg/kg, groups 6, 10)?
The blood sugar was 12.5.

And the blood sugar ([2]; 8st day, 1 mg/kg, groups 3, 7)?
Its blood sugar is 13.8.

And the blood sugar ([2]; 8st day, 5 mg/kg, groups 4, 8)?
Its blood sugar is 7.12.

And the blood sugar ([2]; 8st day, 10 mg/kg, groups 5, 9)?
The blood sugar was 14.1.

What about the blood sugar ([2]; 8st day, 20 mg/kg, groups 6, 10) of the same molecule?
Its blood sugar is 12.8.

What about the blood sugar ([2]; 11st day, 1 mg/kg, groups 3, 7) of the same molecule?
The blood sugar was 15.3.

What about the blood sugar ([2]; 11st day, 5 mg/kg, groups 4, 8) of the same molecule?
Its blood sugar is 8.21.

And the blood sugar ([2]; 11st day, 10 mg/kg, groups 5, 9)?
Its blood sugar is 14.3.

And the blood sugar ([2]; 11st day, 20 mg/kg, groups 6, 10)?
The blood sugar was 12.9.

What about the blood sugar ([2]; 14st day, 1 mg/kg, groups 3, 7) of the same molecule?
The blood sugar was 12.4.

And the blood sugar ([2]; 14st day, 5 mg/kg, groups 4, 8)?
The blood sugar was 8.3.

What about the blood sugar ([2]; 14st day, 10 mg/kg, groups 5, 9) of the same molecule?
Its blood sugar is 13.2.

What about the blood sugar ([2]; 14st day, 20 mg/kg, groups 6, 10) of the same molecule?
Its blood sugar is 12.5.

What about the blood sugar ([2]; 17st day, 1 mg/kg, groups 3, 7) of the same molecule?
The blood sugar was 13.1.

What about the blood sugar ([2]; 17st day, 5 mg/kg, groups 4, 8) of the same molecule?
The blood sugar was 8.2.

And the blood sugar ([2]; 17st day, 10 mg/kg, groups 5, 9)?
Its blood sugar is 14.5.

What about the blood sugar ([2]; 17st day, 20 mg/kg, groups 6, 10) of the same molecule?
Its blood sugar is 12.5.

And the blood sugar ([2]; 20st day, 1 mg/kg, groups 3, 7)?
The blood sugar was 12.43.

And the blood sugar ([2]; 20st day, 5 mg/kg, groups 4, 8)?
The blood sugar was 10.23.

And the blood sugar ([2]; 20st day, 10 mg/kg, groups 5, 9)?
The blood sugar was 14.12.

What about the blood sugar ([2]; 20st day, 20 mg/kg, groups 6, 10) of the same molecule?
Its blood sugar is 12.45.
